Results published in patent US20230310428A1, “EGFR INHIBITOR AND PREPARATION METHOD AND USE THEREOF” (HONGYUN BIOTECH CO., LTD., priority 2020, published 2023).

Key:
Assay in all cases: Growth inhibitory activity of compounds on BaF3 cell lines stably transfected with kinase (MTS, 48 h)
Assay type in all cases: cell-based
[1] = target: T1, various mutants of kinase EGFR (BaF3 cell lines stably transfected with kinase) (Homo sapiens, UniProt P00533, C797S/L858R/T790M); conditions: BaF3 cells stably transfected with EGFR L858R/T790M/C797S, read-out: IC50, growth inhibition, L858R/T790M/C797S
T1 construct: expressed in transfected cells; host or cells: BaF3
Summary of the method: (§1)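 Growth is measured by MTS reduction (OD 490 nm) after 48 h compound exposure at up to 10 µM in 8 steps of 1/3. Inhibition is calculated against a 0.1% DMSO control and cell-free blank, and IC50 is derived from it.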

[2] = target: T2, various mutants of kinase EGFR (BaF3 cell lines stably transfected with kinase) (Homo sapiens, UniProt P00533, L858R); conditions: BaF3 cells stably transfected with EGFR L858R, read-out: IC50, growth inhibition, L858R
T2 construct: expressed in transfected cells; host or cells: BaF3
Summary of the method: as §1

[3] = target: T3, various mutants of kinase EGFR (BaF3 cell lines stably transfected with kinase) (Homo sapiens, UniProt P00533, T790M, form not given); conditions: BaF3 cells stably transfected with EGFR Δ19Del/T790M, read-out: IC50, growth inhibition, Δ19Del/T790M
T3 construct: other: BaF3 cells stably transfected with EGFR Δ19Del/T790M; MTS, 48 h; other: BaF3 cell line stably transfected with EGFR Δ19Del/T790M; MTS, 48
Summary of the method: as §1

[4] = target: T4, various mutants of kinase EGFR (BaF3 cell lines stably transfected with kinase) (Homo sapiens, UniProt P00533); conditions: BaF3 cells stably transfected with EGFR Δ19Del, read-out: IC50, growth inhibition, Δ19Del
T4 construct: other: BaF3 cells stably transfected with EGFR Δ19Del; MTS, 48 h; other: BaF3 cell line stably transfected with EGFR Δ19Del
Summary of the method: as §1

[5] = target: T5, various mutants of kinase EGFR (BaF3 cell lines stably transfected with kinase) (Homo sapiens, UniProt P00533, L858R/T790M); conditions: BaF3 cells stably transfected with EGFR L858R/T790M, read-out: IC50, growth inhibition, L858R/T790M
T5 construct: expressed in transfected cells; host or cells: BaF3
Summary of the method: as §1

[6] = target: T6, various mutants of kinase EGFR (BaF3 cell lines stably transfected with kinase) (Homo sapiens, UniProt P00533, T790M/C797S, form not given); conditions: BaF3 cells stably transfected with EGFR Δ19Del/T790M/C797S, read-out: IC50, growth inhibition, Δ19Del/T790M/C797S
T6 construct: other: BaF3 cells stably transfected with EGFR Δ19Del/T790M/C797S; MTS, 48; other: BaF3 cell line stably transfected with EGFR Δ19Del/T790M/C7
Summary of the method: as §1

T1 sequence (P00533 25-1210 T790M/C797S/L858R): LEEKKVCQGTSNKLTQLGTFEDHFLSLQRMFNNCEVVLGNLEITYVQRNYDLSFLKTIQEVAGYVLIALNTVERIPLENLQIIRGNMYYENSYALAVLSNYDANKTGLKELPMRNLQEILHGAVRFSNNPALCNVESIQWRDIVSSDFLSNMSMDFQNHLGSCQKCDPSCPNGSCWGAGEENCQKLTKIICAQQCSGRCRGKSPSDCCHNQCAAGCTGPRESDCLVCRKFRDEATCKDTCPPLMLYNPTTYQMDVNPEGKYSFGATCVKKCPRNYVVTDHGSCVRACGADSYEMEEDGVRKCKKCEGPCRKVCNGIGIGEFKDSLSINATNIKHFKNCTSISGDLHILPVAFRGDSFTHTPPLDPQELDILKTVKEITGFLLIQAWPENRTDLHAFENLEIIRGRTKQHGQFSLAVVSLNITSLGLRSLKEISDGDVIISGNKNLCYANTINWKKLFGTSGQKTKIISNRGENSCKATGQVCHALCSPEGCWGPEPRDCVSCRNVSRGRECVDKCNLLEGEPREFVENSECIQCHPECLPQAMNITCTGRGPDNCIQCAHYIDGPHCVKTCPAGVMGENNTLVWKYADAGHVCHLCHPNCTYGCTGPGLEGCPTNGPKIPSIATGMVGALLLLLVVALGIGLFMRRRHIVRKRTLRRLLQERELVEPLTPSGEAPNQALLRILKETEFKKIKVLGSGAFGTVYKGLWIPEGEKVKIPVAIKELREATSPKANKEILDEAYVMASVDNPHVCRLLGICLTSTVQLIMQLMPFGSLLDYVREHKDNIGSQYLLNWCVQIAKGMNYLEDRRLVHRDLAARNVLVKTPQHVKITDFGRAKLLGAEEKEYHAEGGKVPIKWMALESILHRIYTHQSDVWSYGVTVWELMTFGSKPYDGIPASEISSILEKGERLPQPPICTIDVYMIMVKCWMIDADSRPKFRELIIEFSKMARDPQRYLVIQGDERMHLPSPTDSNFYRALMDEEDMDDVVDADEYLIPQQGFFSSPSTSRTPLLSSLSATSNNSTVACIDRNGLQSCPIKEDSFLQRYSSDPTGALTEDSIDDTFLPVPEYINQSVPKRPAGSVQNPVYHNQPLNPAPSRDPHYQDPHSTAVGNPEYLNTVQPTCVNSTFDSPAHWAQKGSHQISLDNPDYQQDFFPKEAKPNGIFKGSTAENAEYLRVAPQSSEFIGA
T2 sequence (P00533 25-1210 L858R): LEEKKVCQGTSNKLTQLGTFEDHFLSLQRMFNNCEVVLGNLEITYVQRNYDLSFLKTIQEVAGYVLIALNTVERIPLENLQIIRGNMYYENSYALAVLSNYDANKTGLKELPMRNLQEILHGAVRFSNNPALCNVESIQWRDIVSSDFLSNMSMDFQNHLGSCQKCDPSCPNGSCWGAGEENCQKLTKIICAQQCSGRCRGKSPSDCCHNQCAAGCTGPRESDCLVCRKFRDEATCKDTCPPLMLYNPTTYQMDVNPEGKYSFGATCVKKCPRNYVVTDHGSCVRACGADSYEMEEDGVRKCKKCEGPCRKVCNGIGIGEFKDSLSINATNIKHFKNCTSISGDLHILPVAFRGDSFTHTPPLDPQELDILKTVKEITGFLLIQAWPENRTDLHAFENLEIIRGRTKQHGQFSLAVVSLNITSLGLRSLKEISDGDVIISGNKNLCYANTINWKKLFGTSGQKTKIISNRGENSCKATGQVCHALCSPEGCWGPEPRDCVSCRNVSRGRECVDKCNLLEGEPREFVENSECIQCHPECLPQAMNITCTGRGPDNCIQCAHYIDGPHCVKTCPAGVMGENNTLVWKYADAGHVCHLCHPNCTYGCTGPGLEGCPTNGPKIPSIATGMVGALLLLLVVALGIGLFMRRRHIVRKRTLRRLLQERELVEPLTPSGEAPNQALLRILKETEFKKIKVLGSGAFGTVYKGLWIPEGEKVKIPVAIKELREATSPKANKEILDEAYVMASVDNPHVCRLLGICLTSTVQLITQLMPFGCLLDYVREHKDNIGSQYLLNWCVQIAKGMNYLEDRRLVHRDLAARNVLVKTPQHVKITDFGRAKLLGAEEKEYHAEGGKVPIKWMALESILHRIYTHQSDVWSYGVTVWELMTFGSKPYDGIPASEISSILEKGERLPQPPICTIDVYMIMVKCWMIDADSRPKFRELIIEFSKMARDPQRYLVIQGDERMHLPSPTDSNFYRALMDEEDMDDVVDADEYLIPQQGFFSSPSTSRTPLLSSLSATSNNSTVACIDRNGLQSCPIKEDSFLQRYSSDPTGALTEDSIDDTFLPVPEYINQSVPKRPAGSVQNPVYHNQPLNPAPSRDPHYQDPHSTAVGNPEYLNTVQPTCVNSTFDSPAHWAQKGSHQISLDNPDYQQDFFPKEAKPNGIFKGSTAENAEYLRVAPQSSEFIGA
T6 sequence (P00533 with tags, fused parts or gaps DEL746-750/T790M/C797S, form open): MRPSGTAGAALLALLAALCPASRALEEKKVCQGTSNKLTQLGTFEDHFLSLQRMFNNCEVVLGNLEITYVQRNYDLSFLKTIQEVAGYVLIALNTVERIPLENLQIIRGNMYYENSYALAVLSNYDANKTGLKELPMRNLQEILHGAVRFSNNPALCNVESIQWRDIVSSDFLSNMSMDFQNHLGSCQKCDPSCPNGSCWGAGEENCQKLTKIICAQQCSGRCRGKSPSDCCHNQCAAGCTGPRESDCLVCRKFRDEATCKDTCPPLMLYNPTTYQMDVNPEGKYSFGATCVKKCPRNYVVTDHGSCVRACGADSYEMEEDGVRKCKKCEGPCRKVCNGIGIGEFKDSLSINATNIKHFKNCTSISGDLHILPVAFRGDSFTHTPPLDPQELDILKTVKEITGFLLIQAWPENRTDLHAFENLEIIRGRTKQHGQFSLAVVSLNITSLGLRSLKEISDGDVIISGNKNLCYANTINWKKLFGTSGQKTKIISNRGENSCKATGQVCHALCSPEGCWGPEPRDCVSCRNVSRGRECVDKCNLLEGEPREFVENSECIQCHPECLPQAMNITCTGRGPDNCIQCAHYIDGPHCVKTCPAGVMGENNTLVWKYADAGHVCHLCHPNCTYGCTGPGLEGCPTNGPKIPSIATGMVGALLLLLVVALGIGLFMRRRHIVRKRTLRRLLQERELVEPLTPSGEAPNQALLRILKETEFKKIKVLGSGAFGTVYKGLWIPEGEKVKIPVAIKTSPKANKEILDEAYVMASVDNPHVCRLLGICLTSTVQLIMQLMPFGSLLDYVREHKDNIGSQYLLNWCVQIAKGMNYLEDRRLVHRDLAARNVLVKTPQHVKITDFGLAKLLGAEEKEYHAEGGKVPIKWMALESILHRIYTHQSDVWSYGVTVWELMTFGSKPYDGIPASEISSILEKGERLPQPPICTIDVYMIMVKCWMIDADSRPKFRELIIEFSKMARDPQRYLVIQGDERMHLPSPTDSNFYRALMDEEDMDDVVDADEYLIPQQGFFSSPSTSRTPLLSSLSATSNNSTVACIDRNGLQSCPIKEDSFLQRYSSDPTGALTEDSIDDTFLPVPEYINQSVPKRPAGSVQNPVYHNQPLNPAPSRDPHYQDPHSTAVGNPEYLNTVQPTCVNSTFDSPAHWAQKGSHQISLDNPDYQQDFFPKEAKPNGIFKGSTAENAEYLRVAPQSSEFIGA
T4 sequence (P00533 with tags, fused parts or gaps DEL746-750): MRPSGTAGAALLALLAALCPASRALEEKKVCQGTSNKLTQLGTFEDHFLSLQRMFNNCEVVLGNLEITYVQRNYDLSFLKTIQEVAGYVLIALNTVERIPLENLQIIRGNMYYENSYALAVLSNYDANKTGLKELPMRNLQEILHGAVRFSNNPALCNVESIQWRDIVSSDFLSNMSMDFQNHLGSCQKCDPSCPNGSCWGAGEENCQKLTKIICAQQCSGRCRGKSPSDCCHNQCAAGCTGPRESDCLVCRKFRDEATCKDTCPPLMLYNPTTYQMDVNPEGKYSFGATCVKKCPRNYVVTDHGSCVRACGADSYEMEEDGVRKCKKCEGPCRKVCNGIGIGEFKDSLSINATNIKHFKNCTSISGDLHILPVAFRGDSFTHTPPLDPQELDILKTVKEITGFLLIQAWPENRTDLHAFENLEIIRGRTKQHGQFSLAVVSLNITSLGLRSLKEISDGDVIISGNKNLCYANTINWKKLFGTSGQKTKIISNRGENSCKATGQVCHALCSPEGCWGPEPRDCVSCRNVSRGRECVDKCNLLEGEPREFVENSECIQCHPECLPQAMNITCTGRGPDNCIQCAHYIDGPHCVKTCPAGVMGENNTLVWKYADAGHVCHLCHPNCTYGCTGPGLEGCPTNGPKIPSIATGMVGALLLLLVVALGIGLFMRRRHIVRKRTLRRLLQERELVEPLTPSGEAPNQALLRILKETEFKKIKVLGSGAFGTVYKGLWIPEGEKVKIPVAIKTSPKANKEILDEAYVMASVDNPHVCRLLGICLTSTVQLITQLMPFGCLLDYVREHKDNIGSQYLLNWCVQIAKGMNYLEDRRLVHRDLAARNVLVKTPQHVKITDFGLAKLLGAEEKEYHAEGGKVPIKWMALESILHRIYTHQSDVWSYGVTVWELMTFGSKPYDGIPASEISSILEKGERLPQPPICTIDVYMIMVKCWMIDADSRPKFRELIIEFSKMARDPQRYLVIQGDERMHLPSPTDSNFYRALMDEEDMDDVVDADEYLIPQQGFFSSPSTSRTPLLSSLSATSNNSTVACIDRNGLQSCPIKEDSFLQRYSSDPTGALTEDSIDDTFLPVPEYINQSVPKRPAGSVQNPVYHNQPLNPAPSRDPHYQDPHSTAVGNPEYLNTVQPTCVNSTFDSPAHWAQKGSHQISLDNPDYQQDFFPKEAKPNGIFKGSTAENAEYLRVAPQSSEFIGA

| Structure (SMILES) | IC50 [1] [nM] | IC50 [2] [nM] | IC50 [3] [nM] | IC50 [4] [nM] | IC50 [5] [nM] | IC50 [6] [nM] |
| --- | --- | --- | --- | --- | --- | --- |
| COc1cc(N2CCN(C)CC2)c(C)cc1Nc1ncc(F)c(Nc2ccc3nccnc3c2N(C)S(C)(=O)=O)n1 [Compound I-185] | 50 to 500 | ≤ 50 | 50 to 500 | 50 to 500 | 50 to 500 | ≤ 50 |
| CCc1cc(Nc2ncc(F)c(Nc3ccc4nccnc4c3N(C)S(C)(=O)=O)n2)c(OC)cc1N1CCN(C)CC1 [Compound I-186] | ≤ 50 | ≤ 50 | 50 to 500 | 50 to 500 | 50 to 500 | ≤ 50 |
| COc1cc(N2CCC(N(C)C)C2)c(C)cc1Nc1ncc(F)c(Nc2ccc3nccnc3c2N(C)S(C)(=O)=O)n1 (stereo not drawn) [Compound I-187] | 50 to 500 | 50 to 500 | 50 to 500 | ≤ 50 | 50 to 500 | 50 to 500 |
| CCc1cc(Nc2ncc(F)c(Nc3ccc4nccnc4c3N(C)S(C)(=O)=O)n2)c(OC)cc1N1CCC(N(C)C)C1 (stereo not drawn) [Compound I-188] | 50 to 500 | ≤ 50 | ≤ 50 | 50 to 500 | 50 to 500 | ≤ 50 |
| CCc1cc(Nc2ncc([N+](=O)[O-])c(Nc3ccc4nccnc4c3N(C)S(C)(=O)=O)n2)c(OC)nc1N1CCC(N2CCN(C)CC2)CC1 [Compound I-190] | 50 to 500 | 50 to 500 | ≤ 50 | 50 to 500 | ≤ 50 | ≤ 50 |
| COc1cc(N2CCC(N3CCN(C)CC3)CC2)c(CC2CC2)cc1Nc1ncc([N+](=O)[O-])c(Nc2ccc3nccnc3c2N(C)S(C)(=O)=O)n1 [Compound I-191] | 50 to 500 | 50 to 500 | 50 to 500 | 50 to 500 | 50 to 500 | ≤ 50 |
| COc1cc(N2CCC(N(C)C)CC2)c(C)cc1Nc1ncc([N+](=O)[O-])c(Nc2ccc3nccnc3c2N(C)S(C)(=O)=O)n1 [Compound I-192] | ≤ 50 | 50 to 500 | ≤ 50 | ≤ 50 | ≤ 50 | ≤ 50 |
| CCc1cc(Nc2ncc([N+](=O)[O-])c(Nc3ccc4nccnc4c3N(C)S(C)(=O)=O)n2)c(OC)cc1N1CCC(N(C)C)CC1 [Compound I-193] | ≤ 50 | ≤ 50 | ≤ 50 | ≤ 50 | ≤ 50 | ≤ 50 |
| COc1cc(N2CCN(C)CC2)c(C)cc1Nc1ncc([N+](=O)[O-])c(Nc2ccc3nccnc3c2N(C)S(C)(=O)=O)n1 [Compound I-194] | 50 to 500 | 50 to 500 | 50 to 500 | 50 to 500 | 50 to 500 | ≤ 50 |
| COc1cc(N2CCC(N(C)C)C2)c(C)cc1Nc1ncc([N+](=O)[O-])c(Nc2ccc3nccnc3c2N(C)S(C)(=O)=O)n1 (stereo not drawn) [Compound I-195] | 50 to 500 | 50 to 500 | 50 to 500 | 50 to 500 | 50 to 500 | ≤ 50 |
| CCc1cc(Nc2ncc([N+](=O)[O-])c(Nc3ccc4nccnc4c3N(C)S(C)(=O)=O)n2)c(OC)cc1N1CCC(N(C)C)C1 (stereo not drawn) [Compound I-196] | 50 to 500 | 50 to 500 | 50 to 500 | 50 to 500 | 50 to 500 | ≤ 50 |
| COc1nc(N2CCC(N3CCN(C)CC3)CC2)ccc1Nc1ncc(C(F)(F)F)c(Nc2ccc3nccnc3c2N(C)S(C)(=O)=O)n1 [Compound I-197] | 50 to 500 | 50 to 500 | 50 to 500 | 50 to 500 | 50 to 500 | ≤ 50 |
| CCc1cc(Nc2ncc(C(F)(F)F)c(Nc3ccc4nccnc4c3N(C)S(C)(=O)=O)n2)c(OC)nc1N1CCC(N2CCN(C)CC2)CC1 [Compound I-199] | ≤ 50 | ≤ 50 | ≤ 50 | 50 to 500 | ≤ 50 | ≤ 50 |
| CN1CCN(C2CCN(c3ccc(Nc4ncc(C(F)(F)F)c(Nc5ccc6nccnc6c5N(C)S(C)(=O)=O)n4)c(OC(F)(F)F)c3)CC2)CC1 [Compound I-200] | 50 to 500 | 50 to 500 | 50 to 500 | 50 to 500 | 50 to 500 | 50 to 500 |
| CCc1cc(Nc2ncc(C(F)(F)F)c(Nc3ccc4nccnc4c3N(C)S(C)(=O)=O)n2)c(OC(F)(F)F)cc1N1CCC(N2CCN(C)CC2)CC1 [Compound I-201] | 50 to 500 | 50 to 500 | 50 to 500 | 50 to 500 | 50 to 500 | ≤ 50 |
| C=Cc1cc(Nc2ncc(C(F)(F)F)c(Nc3ccc4nccnc4c3N(C)S(C)(=O)=O)n2)c(OC(F)(F)F)cc1N1CCC(N2CCN(C)CC2)CC1 [Compound I-202] | 50 to 500 | 50 to 500 | ≤ 50 | 50 to 500 | ≤ 50 | ≤ 50 |
| COc1cc(N2CCC(N3CCN(C)CC3)CC2)c(CC2CC2)cc1Nc1ncc(C(F)(F)F)c(Nc2ccc3nccnc3c2N(C)S(C)(=O)=O)n1 [Compound I-203] | 50 to 500 | 50 to 500 | ≤ 50 | 50 to 500 | ≤ 50 | ≤ 50 |
| COc1cc(N2CCC(N3CCN(C)CC3)CC2)c(Cc2ccccc2)cc1Nc1ncc(C(F)(F)F)c(Nc2ccc3nccnc3c2N(C)S(C)(=O)=O)n1 [Compound I-204] | 500 to 2500 | 500 to 2500 | 500 to 2500 | 500 to 2500 | 500 to 2500 | 500 to 2500 |
| COc1cc(N2CCC(N(C)C)CC2)c(C)cc1Nc1ncc(C(F)(F)F)c(Nc2ccc3nccnc3c2N(C)S(C)(=O)=O)n1 [Compound I-205] | ≤ 50 | ≤ 50 | ≤ 50 | ≤ 50 | ≤ 50 | ≤ 50 |
| CCc1cc(Nc2ncc(C(F)(F)F)c(Nc3ccc4nccnc4c3N(C)S(C)(=O)=O)n2)c(OC)cc1N1CCC(N(C)C)CC1 [Compound I-206] | ≤ 50 | ≤ 50 | ≤ 50 | ≤ 50 | ≤ 50 | ≤ 50 |
| COc1cc(N2CCN(C)CC2)c(C)cc1Nc1ncc(C(F)(F)F)c(Nc2ccc3nccnc3c2N(C)S(C)(=O)=O)n1 [Compound I-207] | ≤ 50 | 50 to 500 | ≤ 50 | 50 to 500 | ≤ 50 | ≤ 50 |
| CCc1cc(Nc2ncc(C(F)(F)F)c(Nc3ccc4nccnc4c3N(C)S(C)(=O)=O)n2)c(OC)cc1N1CCN(C)CC1 [Compound I-208] | ≤ 50 | ≤ 50 | ≤ 50 | 50 to 500 | ≤ 50 | ≤ 50 |
| COc1cc(N2CCC(N(C)C)C2)c(C)cc1Nc1ncc(C(F)(F)F)c(Nc2ccc3nccnc3c2N(C)S(C)(=O)=O)n1 (stereo not drawn) [Compound I-209] | ≤ 50 | ≤ 50 | ≤ 50 | 50 to 500 | ≤ 50 | ≤ 50 |
| CCc1cc(Nc2ncc(C(F)(F)F)c(Nc3ccc4nccnc4c3N(C)S(C)(=O)=O)n2)c(OC)cc1N1CCC(N(C)C)C1 (stereo not drawn) [Compound I-210] | ≤ 50 | ≤ 50 | ≤ 50 | ≤ 50 | ≤ 50 | ≤ 50 |
